Data set [1] has as its system normal bronchial tone. Put plainly: NO effects on normal bronchial tone. Type of data set: in vivo, Hartley strain guinea pigs. Particulars: 300 ppm NO, without methacholine infusion (FIG. 8). The procedure: (§1) Male Hartley strain guinea pigs (300-440g body wt) were anesthetized with α-chloralose (50 mg/kg) and urethane (500 mg/kg) (Drazen et al., J. Appl. Physiol. 48:613-618, 1980). A tracheostomy was performed, and the animals were intubated with a tubing adaptor (ID 1.65 mm) and ventilated with a small animal ventilator (Harvard Apparatus, a division of Ealing Scientific, Natick, Mass.) at 8 ml/kg and 60 breaths/min. A jugular vein was cannulated for intravenous administration of drugs. The chest was opened by bilateral excision of a portion of the ribs anteriorly so that the lungs were exposed to atmospheric pressure (Shore and Drazen, J. Appl. Physiol. 67:2504-2511, 1989). A positive end expiratory pressure of 3-4 cmH2 O was provided.
(§2) Guinea pigs were then placed inside a plethysmograph (Amdur and Mead, Am. J. Physiol. 192:363-368, 1958), that was connected to a large reservoir containing copper mesh to maintain the plethysmograph isothermal. Plethysmograph pressure was measured with a differential pressure transducer (Celesco, Canoga Park, Calif.); the opposite side of this transducer was connected to a similar reservoir. Pressure at the airway opening was measured from a side tap in the tracheal canula. Transpulmonary pressure was measured with a differential pressure transducer (Celesco) as the difference between airway opening pressure and the pressure inside the plethysmograph. […]

The conditions of data set [2]: dilute aqueous solution exposed to oxygen; cited from earlier work.
In data set [3] the test system is control lambs. In words: Inhaled NO in control lambs with no drug infusion. Type of data set: in vivo, Suffolk lambs. Particulars: 80 ppm NO, FiO2 0.6-0.7, two lambs. The source says:
Eight Suffolk lambs weighing 25-35 kg underwent a sterile thoracotomy in order to place a left atrial line, tracheostomy and femoral artery line under general endotracheal anesthesia with halothane/oxygen three days before study. After three days of recovery the lambs underwent sterile placement of a 7 French thermal dilution pulmonary artery monitoring catheter under local anesthesia.
Awake unanesthetized lambs were studied in order to avoid general anesthesia which can blunt hypoxic vasoconstriction. Lambs were placed in a Babraham cage and allowed to drink and eat ad lib. Two studies were performed 2 days apart on each of six lambs. After the study the lambs were sacrificed with an overdose of barbiturate and heir lungs were fixed, stained and examined by light microscopy for pathological changes.
A pulmonary vasodilator dose response curve plotting changes in PAP as a function of inhaled NO concentration during U46619 infusion was produced for eight lambs breathing a series of increasing NO/O2 mixtures of 5, 10, 20, 40, and 80 ppm NO for six minutes (FIG. 1). Each level of NO exposure was followed by six minutes of breathing the oxygen mixture without NO (FIG. 2). A second exposure to NO was examined for similar periods. Subsequently, a control period breathing the oxygen mixture was studied six minutes after ceasing U46619 infusion. At each three and six minute time period after administering or discontinuing NO during the study, we measured mean and phasic pulmonary artery pressure (PAP), left atrial pressure (LAP), systemic arterial pressure (SAP) and central venous pressure (CVP). All pressures were recorded on a Hewlett Packard multi-channel strip chart recorder with transducers zeroed to atmospheric pressure at the mid point of the thorax (e.g., see FIG. 3). Cardiac output (CO) was measured by thermal dilution as the average of two determinations injecting 5 ml of 0° C. Ringers lactate. Pulmonary vascular resistance (PVR) and systemic vascular resistance (SVR) were computed by standard formulae; PVR measured at each inhaled NO concentration is shown in FIG. 4. Appropriate statistical analyses were performed, and all data were expressed as mean ± standard error.
Two control lambs with no drug infusion breathed 80 ppm NO at an F1 O2 of 0.6-0.7. There was no change of mean PAP, SAP, CO or SVR in these lambs.

Data set [4] deals with lungs. Put plainly: Light microscopy of lungs for morphological changes caused by breathing NO. Type of data set: in vivo. The settings on record: 80 ppm NO for 180 min, three lambs vs control lungs. As for the experimental part:
Lungs from three lambs which had breathed 80 ppm NO for 180 min were studied by light microscopy for evidence of morphological changes caused by breathing NO.

The test system of data set [5] is methacholine bronchoconstriction. Put plainly: NO and terbutaline aerosol during methacholine infusion. The class given is in vivo, Hartley strain guinea pigs. Particulars: NO gas before or after inhaled terbutaline. The procedure: as §1, §2

As to `[N]=O` [NO, nitric oxide], the baseline bronchomotor tone result in data set [1] was “decreased the baseline bronchomotor tone”. In data set [2], the half life entry is recorded as “less than 10 seconds”. In data set [3], the CO result was “no change”, the SAP result is listed as “no change”, the SVR entry is “no change” and the “mean PAP” value was “no change”. Moreover, the “morphological changes of lungs” value in data set [4] is on record as “No significant differences”. The “bronchodilating effects of NO plus terbutaline” value in data set [5] is given as “additive”.

The values are drawn from patent US5873359A, “Methods and devices for treating pulmonary vasoconstriction and asthma” (The General Hospital Corporation, priority 1994, dated 1999).
